Source: patent US20100125059A1, “1-BIARYLAZETIDINONE DERIVATIVE” (Teijin Pharma Limited, priority 2007, published 2010)
Read-outs that look alike come from different tables or passages of the source.

Key:
Caco-2 cells = experiment: Cholesterol absorption inhibition assay (in vitro), [14C] cholesterol mixed micelles; type: cell-based; details: Homo sapiens, concentration of 12.5 μM, 24 hours, read-out: cholesterol absorption inhibitory activity
In short: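 Caco-2 cells cultured 2 weeks, then incubated 24 h at 37° C with [14C] cholesterol mixed micelles (oleate, phosphatidylcholine, taurocholate) plus compound at 0.5 to 25 μM final. Lipids extracted, cholesteryl ester separated by TLC and quantified by imaging plate; inhibition as background-corrected percentage of solvent control.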

[1] = tested on: hamsters fed a high cholesterol diet; experiment: Measurement of lipid lowering effect in hamsters fed a high cholesterol diet; type: in vivo, Male Golden Syrian hamsters; details: Mesocricetus auratus, po, 168 h, gavage once daily, 7 days
In short: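 Male Golden Syrian hamsters (6/group) on 0.5% cholesterol diet, dosed by gavage once daily in corn oil at 0.01 to 10 mg/kg; serum and liver sampled 4 h after last dose. TC, TG and LDL-C measured enzymatically; effects expressed as % suppression versus control and normal-diet groups.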

[2] = either alone or in the presence of a statin; cited from earlier work
[3] = read-out: serum LDL-C lowering effect (suppression rate of an increase in serum LDL-C concentration)
[4] = read-out: liver TC lowering effect (suppression rate of an increase in liver TC concentration)
[5] = read-out: serum TC lowering effect (suppression rate of an increase in serum TC concentration)

O=C1[C@H](SC[C@H](O)c2ccc(Cl)cc2)[C@@H](c2ccc(O)cc2)N1c1ccc(-c2cncc(C(F)(F)F)c2)cc1 [Example 86, (3R,4R)-3-[(2R)-2-(4-chlorophenyl)-2-hydroxyethylthio]-4-(4-hydroxyphenyl)-1-[4-(5-trifluoromethylpyridin-3-yl)phenyl]azetidin-2-one]
inhibition at 12.5 µM (Caco-2 cells): ≥ 60%
inhibition in vivo at 0.01 mg/kg [1, 3]: ≥ 30%

O=C1[C@H](SC[C@H](O)c2ccc(Cl)cc2)[C@@H](c2ccc(O)cc2)N1c1ccc(-c2cncc(Cl)c2)cc1 [Example 87, (3R,4R)-3-[(2R)-2-(4-chlorophenyl)-2-hydroxyethylthio]-1-[4-(5-chloropyridin-3-yl)phenyl]-4-(4-hydroxyphenyl)azetidin-2-one]
inhibition at 12.5 µM (Caco-2 cells): ≥ 60%
inhibition in vivo at 0.01 mg/kg [1, 4]: ≥ 30%
inhibition in vivo at 0.01 mg/kg [1, 3]: ≥ 30%
inhibition in vivo at 0.01 mg/kg [1, 5]: ≥ 30%

O=C1[C@H](SC[C@H](O)c2ccc(F)cc2Cl)[C@@H](c2ccc(O)cc2)N1c1ccc(-c2cccnc2)cc1 [Example 90, (3R,4R)-3-[(2R)-2-(2-chloro-4-fluorophenyl)-2-hydroxyethylthio]-4-(4-hydroxyphenyl)-1-[4-(pyridin-3-yl)phenyl]azetidin-2-one]
inhibition at 12.5 µM (Caco-2 cells): ≥ 60%
inhibition in vivo at 0.1 mg/kg [1, 3]: ≥ 50%
inhibition in vivo at 0.1 mg/kg [1, 5]: ≥ 50%

Cc1ccc(-c2ccc(N3C(=O)[C@H](SC[C@H](O)c4ccc(Cl)cc4)[C@H]3c3ccc(O)cc3)cc2)cn1 [Example 91, (3R,4R)-3-[(2R)-2-(4-chlorophenyl)-2-hydroxyethylthio]-4-(4-hydroxyphenyl)-1-[4-(6-methylpyridin-3-yl)phenyl]azetidin-2-one]
inhibition at 12.5 µM (Caco-2 cells): ≥ 60%
inhibition in vivo at 0.01 mg/kg [1, 5]: ≥ 30%

O=C1[C@H](SC[C@H](O)c2ccc(Cl)cc2)[C@@H](c2ccc(O)cc2)N1c1ccc(-c2ccc(Cl)nc2)cc1 [Example 94, (3R,4R)-3-[(2R)-2-(4-chlorophenyl)-2-hydroxyethylthio]-1-[4-(6-chloropyridin-3-yl)phenyl]-4-(4-hydroxyphenyl)azetidin-2-one]
inhibition at 12.5 µM (Caco-2 cells): ≥ 60%
inhibition in vivo at 0.1 mg/kg [1, 4]: ≥ 50%

Cc1cc(O)ccc1[C@@H]1[C@@H](SC[C@H](O)c2ccc(F)cc2)C(=O)N1c1ccc(-c2cncc(C(F)(F)F)c2)cc1 [Example 99, (3R,4R)-3-[(2R)-2-(4-fluorophenyl)-2-hydroxyethylthio]-4-(4-hydroxy-2-methylphenyl)-1-[4-(5-trifluoromethylpyridin-3-yl)phenyl]azetidin-2-one]
inhibition at 12.5 µM (Caco-2 cells): ≥ 60%
inhibition in vivo at 0.1 mg/kg ([1]; read-out: serum TG lowering effect (serum TG lowering rate)): ≥ 20%

O=C1[C@H](CC[C@H](O)c2ccc(F)cc2)[C@@H](c2ccc(O)cc2)N1c1ccc(F)cc1 [Ezetimibe, (3R,4S)-3-[(3S)-3-(4-fluorophenyl)-3-hydroxypropyl]-1-(4-fluorophenyl)-4-(4-hydroxyphenyl)azetidin-2-one]
LDL cholesterol-lowering effect [2]: 15-20%
